Measured values as given in patent publication US20190298717A1 (BOARD OF REGENTS, THE UNIVERSITY OF TEXAS SYSTEM, priority 2016, published 2019).
Read-outs that look alike come from different tables or passages of the source.

Tests used:
[1] = system: PC12 cells expressing EGFP-HDQ74
Procedure: Transgene expression was induced with doxycycline for 8 hours, and then switched off (by removing doxycycline). […] The fraction of EGFP-positive cells expressing aggregates under different conditions were plotted as odds ratios taking Ctrl value as 1. Error bars show 95% confidence interval. […] The fraction of EGFP-positive cells with aggregates were plotted as odds ratios taking Ctrl value as 1. Error bars show 95% confidence interval. […] Rapamycin ([…]) was used as positive control. Right panel is densitometry analysis of EGFP-HDQ74 level normalized to actin. Error bars show SD. […] The fraction of EGFP-positive cells expressing aggregates were plotted as odds ratios taking Ctrl value as 1. Error bars show 95% confidence interval.
To investigate the clearance of HDQ74 (74 repeats of poly Q), the inventors used a stable doxycycline-inducible PC12 cell line expressing EGFP-tagged HDQ74 in which transgene expression were induced by doxycycline addition to the cell media and switched off by doxycycline removal. […] Rapamycin, a known autophagy inducer, was used as positive controls.

[2] = system: SH-SY5Y cells
Procedure: Viability of the cells was measured by Cell Titer Glo after 24 and 48 hours of treatments. […] Values are presented as mean±SDE (*p<0.05, **p<0.01).
SH-SY5Y neuroblastoma cells were treated with doxorubicin (0.2 μM), a cytotoxic compound that depletes the NAD pool of the cells and changes morphological features that mimic neurodegeneration such as loss of neuritis (8, 9).

[3] = system: Nrf2 pathway; settings: SH-SY5Y, 10 μM, 24 h
Procedure: Cell culture in SILAC media and Lysate Preparation. SHY-SY5Y cells were grown in Dulbecco's modified Eagle's medium containing either unlabeled L-Proline, L-arginine (Argo) and L-lysine (Lyso) or L-Proline, heavy isotope-labeled L-arginine-^13C6^14N4(Arg^10) and L-lysine-^13C6-^15N2 (Lys^8) (Cambridge Isotope Laboratories, Inc.) supplemented with 10% dialyzed fetal bovine serum (Thermo Fischer, Waltham, Mass.). […] After treatment, cells were harvested by trypisinization, washed three times with cold PBS and lysed in a buffer containing 6M Urea, 2M Thio-urea, 1% SDS and 100 mM Tris/HCl, pH 8.0 with protease (Thermo Fischer, Waltham, Mass.) and phosphatase inhibitors. After incubation for 15 min at RT and sonication, the samples were clarified by centrifugation for 15 min at 20,000×g. Protein content was determined using the 660 nM protein assay kit (Thermo Fisher, Waltham, Mass.) according to the manufacturer's instructions.
Protein Digestion and Peptide Fractionation. […] The mix digest (300 μg) was then fractionated into six fractions via strong cation exchange (SCX). […]
Mass Spectrometry for SILAC. All the fractions were analyzed using a Q-Exactive HF mass spectrometer (Thermo Electron, Burlingame, Calif.) coupled to an Ultimate 3000 RSLCnano HPLC systems (Thermo Electron, Sunnyvale Calif.). […]

[4] = system: primary cortical neurons
Procedure: For each group (control, 0.5 μM Hyd, 1 μM Hyd, 2 μM Hyd and 2 μM Dimebon) 10 images from three replicates were analyzed. Total numbers of spines, stubby, thin, and mushroom were counted by NeuronStudio software for each image. The mean value and standard deviation of numbers for each group were calculated. P value was calculated with non-parametric T-test. All values are mean±SD (*p<0.05, **p<0.01).
Primary neuronal cells from cortex were visualized with td-Tomato (FIG. 21A). Cells were treated with 500 nM Aβ-42 oligomers or vehicle (Ctrl). Spine density and morphology were measured per 10 micron by confocal imaging. […] Mushroom and thins are indicated with an arrow. […] Dimebon, a known neuroprotective compound, was used as positive control in all experiments. Data were collected from three batches of cultures for all treatments and Ctrl. For spine quantification n=8-10 (for each treatment per one experiment) neurons were analyzed by Neuronstudio. Scale bar corresponds to 5 μm. Experiment was repeated three times. Values are shown as mean±SEM. (*p<0.05, **p<0.01, ***p<0.001, ****p<0.0001).
Primary neuronal cells were isolated from the cortex of mice pups on day 0 (P0) and cultured in 24 well plates covered by poly-D-lysine coated coverslips with a density of 1.0×105 for 7 days. Cells were then transfected with tdTomato plasmid and incubated for 14 additional days (4). […] Dimebon (2 μM) was used as a positive control. After 24 hours of treatment, cells were fixed and scanned with a Zeiss microscope at 100× resolution for visualizing spines on the dendrites. The images were analyzed using Neuronstudio software (5). […] Structural formation and the maturation of spines were also analyzed.

[5] = system: SKN-1
Procedure: Western Blot Analysis. Protein expression was determined by Western blot analysis. Equal amount of protein from each sample was run in Tris-glycine SDS PAGE gel, followed by transferring to PVDF membrane. After blocking the membrane with 5% milk for 1 hour at room temperature, the membrane was incubated further for 2 hours with antibodies specific for target proteins: Nrf2, pNrf2(S40) from Novus (Littleton, Colo.); Keap1, HO-1, NQO1, GCLc, GCLm and lamin B1 from Cell Signaling (Danvers, Mass.); GAPDH from Santa Cruz (Dallas, Tex.); β-Actin from Thermo Fisher (Waltham, Mass.). The membrane was subsequently incubated with species-specific HRP-conjugated secondary antibody followed by incubation with chemiluminescence substrate and imaging. The band intensity of each of the target proteins was quantified using ImageQuant software (GE Healthcare, Sweden). Western blot analysis on worm lystaes was done similarly. […] Equal amounts of protein were run on the gel and SKN-1 protein level was detected using anti-GFP antibody.

[6] = system: SH-SY5Y cells; test: Mitochondrial membrane potential (TMRE); assay type: cell-based, human; settings: hydralazine 0, 10, 20 μM; isoniazid 20 μM
Procedure: Cells were stained by TMRE to tag active mitochondria. Florescence signal was quantified by Flow Jo software. […] ATP levels were measured by bioluminescent detection of luciferase activity. All data are presented normalized to cell number.
The mitochondrial membrane potential was measured as an indicator of cellular energetics and ATP content.

[7] = system: GSK3β and Tau
Procedure: The data represents as percent cell viability normalized to DMSO treated control cells. The values are mean percent of two biological experiments performed in six replicates. […] After treatment Western blot analysis was performed to check the levels of p-GSK3β and total GSK3β in addition to p-Tau and total Tau level. […] Densitometry values were normalized using actin as internal control. All western blot analysis (FIG. 19B, 19C) values are mean±SD from three biological independent experiments (shown in the right panel).
To mimic the cellular environment of AD disease a stable HEK293 cell line (HEKTauP301S) overexpressing mutated full length Tau (P301S) was used.

[8] = system: C. elegans
Procedure: C. elegans strains and maintenance. Animals were grown and maintained using standard C. elegans conditions at 20° C. on NGM plates and were fed E. coli strain HB101. N2 worms were used as wild-type and the following mutants and transgenic strains were used from Caenorhabditis Genetics Center (CGC, University of Minnesota): EU1 skn-1(zu67) (IV)/nT1[unc-?(n754); let-?], EU31 skn-1(zu135))/nT1[unc-?(n754); let-?], CL2166 dvIs19 [gst-4p::GFP::NLS], CL691 dvIs19 [gst-4p::GFP::NLS], skn-1(zu67)/nT [unc-?(n754) let-?], LG333 skn-1(zu135)/nT1[qIs51]; ldIs7[skn-1b/c::GFP], LG348 skn-1(zu135)/nT1[qIs51]; geIs9 [gpa-4p::skn-1b::GFP+rol-6(su1006)], LG357 skn-1(zu135)/nT1[qIs51]; geIs10 [ges-1p(long)::skn-1c::GFP+rol-6(su1006)], and LD1 ldIs7 [skn-1b/c::GFP+rol-6(su1006)].
Lifespan analysis. All lifespan assays were performed at 20° C. according to standard protocols described elsewhere. […] Worms were transferred to fresh plates every day after reaching adulthood, and every two days after reaching 10 days of age. Prodding test as described above was used to count the number of dead worms. Survival curve was plotted using Prism 7 and the significance of the curves calculated by Log-rank (Mantel-Cox) test.
RNA Interference. Synchronized L1 larvae were placed on NGM plates containing 1 mM IPTG and fed HT115 bacterial strain containing scramble or skn-1 RNAi plasmids. All the experiments were done at 20° C.

[9] = system: SH-SY5Y cells; settings: Aβ (1-42) 20 μM, 24 hour; 46% with Aβ alone
Procedure: Densitometry values were normalized against actin.
After 24 hour treatment, cell viability was measured using the cell titer glow luminescence assay.

[10] = HEKTauP301S, 500 nM Aβ (1-42), 10 μM, 24 hours

NNc1nncc2ccccc12 [Hydralazine]
poly Q aggregates (Western blot, EGFP tag) [1]: efficient removal of poly Q aggregates
EGFP-HDQ74 aggregates (confocal) ([1]; 10 μM, 48 hours): significantly reduced
clearance of Poly Q aggregates after 3-MA and bafilomycin ([1]; 5 mM 3-MA, 20 nM bafilomycin): abrogated
EGFP-HDQ74 aggregates in ATG5 knock-down cells ([1]; ATG5 shRNA): failed to clear
increase of NAD level of untreated cell ([2]; 48 hours): 50%
NAD level in doxorubicin treated cells ([2]; doxorubicin 0.2 μM): significant effect on restoring NAD level
protection against doxorubicin induced cell death ([2]; doxorubicin 0.2 μM, 0, 10, 20 μM, 24 and 48 hours): protects cells in a dose-dependent manner
Nrf2 pathway activation, IPA Z score [3]: 0.156
spine density after Aβ-42 oligomers ([4]; 1 μM, 500 nM Aβ-42, 24 hours): restoration of spine density
numbers of spines in a 10 micron length of dendrite ([4]; 0.5, 1.0, 2.0 μM, 24 hours): significantly increased
stubby formation and mushroom spines ([4]; 0.5, 1.0, 2.0 μM, 24 hours): increased the stubby formation and numbers of matured spines
expression of SKN-1 isoforms (B and C) by Western blot ([5]; 100 μM, 72 hours): showed increases
signal intensity and localization of SKN-1::GFP in intestinal nuclei and ASI neurons ([5]; in vivo): significantly increased
mitochondrial membrane potential / mitochondrial function (TMRE) [6]: improves mitochondrial function in a dose dependent manner
phosphorylation level of GSK3β in control HEK293 cells ([7]; HEKT293 cells as control): not able to detect a significant upregulation
Aβ-induced Tau phosphorylation [7, 10]: inhibits Aβ-induced Tau phosphorylation
phosphorylation of GSK3β [7, 10]: upregulates the phosphorylation of GSK3β
Variation Compared to Control (%) ([8]; EU1 skn-1(zu67), 100 μM Hyd (printed 100 IJM), FIG. 7G): +11.7%
Variation Compared to Control (%) ([8]; EU31 skn-1(zu135), 100 μM Hyd (printed 100 IlM), FIG. 7G): +3.3%
Variation Compared to Control (%) ([8]; LG348 (geIs9, skn-1b), 100 μM Hyd (printed 100 IJM), FIG. 7H): +10.8%
Variation Compared to Control (%) ([8]; LG357 (geIs10, skn-1c), 100 μM Hyd (printed 100 FM), FIG. 7H): +2.7%
Variation Compared to Control (%) ([8]; N2, 10 μM Hyd (printed 10 IJM), FIG. 7E): +4.82%
lifespan extension ([8]; N2, 100 μM): ≤ 25%
Variation Compared to Control (%) ([8]; N2, 100 μM Hyd (printed 100IJM), FIG. 7E): +24.4%
Variation Compared to Control (%) ([8]; N2, 200 μM Hyd (printed 200 IlM), FIG. 7E): +13.3%
Variation Compared to Control (%) ([8]; N2-Scramble RNAi, 100 μM (printed 100 IJM), FIG. 7F): +22.2%
Variation Compared to Control (%) ([8]; N2-skn-1 RNAi, 100 μM, FIG. 7F): −5.4%
pro-longevity effect in skn-1(zu135) mutant and skn-1 knockdown worms ([8]; in vivo): completely lost
extension of medium and maximum lifespan ([8]; worms treated with hydralazine): at least 25%
cells surviving Aβ (1-42) peptide treatment [9]: 70-80%
